Data reported in patent US20260293894A1, “FUSED PYRROLIDINE-2-ONE HERBICIDAL COMPOUNDS” (SYNGENTA CROP PROTECTION AG, priority 2023, published 2026).

Columns and labels:
Type in all cases: in vivo
Conditions in all cases: 1000 g/Ha, evaluated after 13 days, glasshouse
Setaria faberi (SETFA) [1] = assay: Pre-emergence herbicidal activity, percentage damage to SETFA
Procedure: (§1) Seeds of a variety of test species are sown in standard soil in pots Amaranthus palmeri (AMAPA), Amaranthus retroflexus (AMARE), Setaria faberi (SETFA), Echinochloa crus-galli (ECHCG), Ipomoea hederacea (IPOHE),). After cultivation for one day (pre-emergence) or after 8 days cultivation (post-emergence) under controlled conditions in a glasshouse (at 24/160C, day/night; 14 hours light; 65% humidity), the plants are sprayed with an aqueous spray solution derived from the dissolution of the technical active ingredient in a small amount of acetone and a special solvent and emulsifier mixture referred to as IF50 (11.12% Emulsogen EL360 TM+44.44% N-methylpyrrolidone+44.44% Dowanol DPM glycol ether, which was then diluted to required concentration using 0.2% Genapol XO80 (CAS No. 9043-30-5) in water as the diluent. Compounds are applied at the rates stated. The test plants are then grown in a glasshouse under controlled conditions in a glasshouse (at 24/160C, day/night; 14 hours light; 65% humidity) and watered twice daily. After 13 days for pre and post-emergence, the test is evaluated for the percentage damage caused to the plant. The biological activities are shown in the following table on a five-point scale (5=81-100%; 4=61-80%; 3=41-60%; 2=21-40%; 1=0-20%; NT=not tested).

[2] = system: Echinochloa crus-galli (ECHCG); assay: Pre-emergence herbicidal activity, percentage damage to ECHCG
Procedure: as §1

[3] = system: Amaranthus palmeri (AMAPA); assay: Pre-emergence herbicidal activity, percentage damage to AMAPA
Procedure: as §1

[4] = system: Amaranthus retroflexus (AMARE); assay: Pre-emergence herbicidal activity, percentage damage to AMARE
Procedure: as §1

[5] = system: Ipomoea hederacea (IPOHE); assay: Pre-emergence herbicidal activity, percentage damage to IPOHE
Procedure: as §1

Setaria faberi (SETFA) [6] = assay: Post-emergence herbicidal activity, percentage damage to SETFA
Procedure: as §1

[7] = system: Echinochloa crus-galli (ECHCG); assay: Post-emergence herbicidal activity, percentage damage to ECHCG
Procedure: as §1

[8] = system: Amaranthus palmeri (AMAPA); assay: Post-emergence herbicidal activity, percentage damage to AMAPA
Procedure: as §1

[9] = system: Amaranthus retroflexus (AMARE); assay: Post-emergence herbicidal activity, percentage damage to AMARE
Procedure: as §1

[10] = system: Ipomoea hederacea (IPOHE); assay: Post-emergence herbicidal activity, percentage damage to IPOHE
Procedure: as §1

Row | SMILES | percentage damage caused to the plant (SETFA) (Setaria faberi (SETFA) [1]) | percentage damage caused to the plant (ECHCG) [2] | percentage damage caused to the plant (AMAPA) [3] | percentage damage caused to the plant (AMARE) [4] | percentage damage caused to the plant (IPOHE) [5] | percentage damage caused to the plant (SETFA) (Setaria faberi (SETFA) [6]) | percentage damage caused to the plant (ECHCG) [7] | percentage damage caused to the plant (AMAPA) [8] | percentage damage caused to the plant (AMARE) [9] | percentage damage caused to the plant (IPOHE) [10]
1 | O=C(O)C[C@@H]1[C@@H]2C[C@@H]2C(=O)N1Cc1ccc(F)c(F)c1 (relative stereo) [A.73, 2-[(1R*,2R*,5S*)-3-[(3,4-difluorophenyl)methyl]-4-oxo-3-azabicyclo[3.1.0]hexan-2-yl]acetic acid] | 5 (81-100%) | 3 (41-60%) | 3 (41-60%) | 4 (61-80%) | 4 (61-80%) | 4 (61-80%) | 3 (41-60%) | 1 (0-20%) | 2 (21-40%) | 1 (0-20%)
2 | O=C(O)C[C@@H]1[C@@H]2C[C@@H]2C(=O)N1Cc1cccc(F)c1F (relative stereo) [A.01, 2-[(1R*,2R*,5S*)-3-[(2,3-difluorophenyl)methyl]-4-oxo-3-azabicyclo[3.1.0]hexan-2-yl]acetic acid] | 5 (81-100%) | 4 (61-80%) | 2 (21-40%) | 4 (61-80%) | 2 (21-40%) | 5 (81-100%) | 4 (61-80%) | 2 (21-40%) | 4 (61-80%) | 3 (41-60%)
3 | COC(=O)C[C@@H]1[C@@H]2C[C@@H]2C(=O)N1Cc1cccc(F)c1F (relative stereo) [Compound A.07, methyl 2-[(1R*,2R*,5S*)-3-[(2,3-difluorophenyl)methyl]-4-oxo-3-azabicyclo[3.1.0]hexan-2-yl]acetate] | 5 (81-100%) | 4 (61-80%) | 3 (41-60%) | 4 (61-80%) | 2 (21-40%) | 4 (61-80%) | 3 (41-60%) | 3 (41-60%) | 3 (41-60%) | 3 (41-60%)
4 | O=C(O)C[C@@H]1[C@@H]2C[C@@H]2C(=O)N1Cc1cccc(Cl)c1 (relative stereo) [A.70, 2-[(1R*,2R*,5S*)-3-[(3-chlorophenyl)methyl]-4-oxo-3-azabicyclo[3.1.0]hexan-2-yl]acetic acid] | 5 (81-100%) | 4 (61-80%) | 1 (0-20%) | 2 (21-40%) | 1 (0-20%) | 4 (61-80%) | 3 (41-60%) | 3 (41-60%) | 1 (0-20%) | 1 (0-20%)
5 | O=C(O)C[C@@H]1[C@@H]2C[C@@H]2C(=O)N1Cc1ccc(F)cc1 (relative stereo) [A.67, 2-[(1R*,2R*,5S*)-3-[(4-fluorophenyl)methyl]-4-oxo-3-azabicyclo[3.1.0]hexan-2-yl]acetic acid] | 3 (41-60%) | 3 (41-60%) | 4 (61-80%) | 3 (41-60%) | 4 (61-80%) | 4 (61-80%) | 2 (21-40%) | 3 (41-60%) | 1 (0-20%) | 2 (21-40%)
6 | O=C(O)C[C@@H]1[C@@H]2C[C@@H]2C(=O)N1Cc1cccc(F)c1 (relative stereo) [A.64, 2-[(1R*,2R*,5S*)-3-[(3-fluorophenyl)methyl]-4-oxo-3-azabicyclo[3.1.0]hexan-2-yl]acetic acid] | 5 (81-100%) | 4 (61-80%) | 4 (61-80%) | 5 (81-100%) | 4 (61-80%) | 5 (81-100%) | 3 (41-60%) | 3 (41-60%) | 4 (61-80%) | 3 (41-60%)
